# Patent publication US6303596A, “Use of taurolidine for treatment of leukemias” (priority 2000, dated 2001)
# Like-named read-outs stand apart in the source and are kept apart here.
# Tests used:
# Format in all cases: cell-based, human
# K562 cells = test: trypan blue exclusion, K562; conditions: K562, 25 μg/ml taurolidine
# Method: FIGS. 6A and 6B depict cell viability and growth rates for K562 cell line following taurolidine treatment, in terms of % trypan blue negative cells and % cell number, respectively. Cells were treated with various concentrations of taurolidine for 4 hours in AIM-V+0.01% BCS. After aliquots were collected for LDH assay, the remainder of the culture was rinsed in HBSS and resuspended in RPMI+10% BCS without taurolidine. Counts of trypan blue-negative cells (FIG. 6A), and total cell number (FIG. 6B), were recorded daily thereafter (with the measurement at Day 1 being made immediately after the 4 hour taurolidine treatment). […] Doubling times were determined under each condition, and expressed as a percentage of the rate of doubling of untreated cells. […]
# In these experiments, integrity of cell membranes following taurolidine treatment was assessed by exclusion of trypan blue and by measuring the release of LDH in MM6, K-562, HL-60, and REH cells. […] A parallel aliquot of cells was lysed by three cycles of freeze/thaw and the quantity of LDH released was taken to be 100%. […]
# HL-60 cells treated with 50 μl taurolidine. In these samples, LDH present in the culture medium was 8.3±2.3% of that released by completely lysed cells, compared with 2.3±0.8% measured in control cultures. […]
# [1] = TUNEL / propidium iodide flow cytometry, PBMC all cells, culture medium; conditions: human, pbmc, PBMC all cells, 6 h, mean ± SD of two experiments, read-out: % Propidium Iodide Positive
# Method: (§1) FIG. 14A and FIG. 14B are terminal deoxytransferase-mediated deoxyuridine-triphosphate-biotin nick end labeling assay (TUNEL) analyses of control cells and taurolidine-treated PBMC, respectively. Cells were incubated with 100 μg/ml taurolidine for six hours and processed for TUNEL analysis as given below. Parallel samples were stained with FITC-conjugated anti-CD14 and propidium iodide (PI) as described below. Ten thousand events were recorded per sample. TUNEL signal (x-axis) is a measure of DNA fragmentation, which FSC (y-axis) is related to cell size. TUNEL-negative lymphocytes are bounded by the rectangle R1, while TUNEL-negative monocytes (CD14 positive cells) are bounded by the rectangle R2. The vertical line indicates demarcation between TUNEL-negative and TUNEL-positive cells. There were minimal numbers of PI-positive cells in the six hour samples (see Table IV).
# (§2) In the second method, DNA fragmentation was detected via TUNEL assay according to the manufacturer's instructions. With this methodology, 2×10^6 cells were fixed with 2% paraformaldehyde, permeabilized with 0.1% Triton X-100/0.1% citrate, incubated at 37° C. with terminal deoxynucleotidyl transferase and FITC-dUTP, rinsed and analyzed by flow cytometry. Enhanced FITC signal indicates apoptosis-specific DNA fragmentation. Gavriali, et al, "Identification of programmed cell death in situ via specific labeling of nuclear DNA fragmentation," J Cell Biol 119:493 (1992). Parallel aliquots of unfixed cells were treated with PI and FITC-conjugated anti-CD14 and analyzed by flow cytometry, in order to identify cells with permeable cell membranes (since PI binds to DNA but is excluded from cells with intact plasma membranes) and also to determine the cell-specificity of the apoptotic signal.
# (§3) A Becton-Dickinson FACSCalibur instrument was used for flow cytometric analysis of cells. Assessment of cell diameter (forward scatter; FCS) and granularity (side scatter; SSC).was carried out on unfixed cells. Discrimination between lymphocytes and monocytes was made possible by their characteristic differences in FSC and SSC, and confirmed by staining monocytes with FITC-labeled anti-CD14 antibodies and lymphocytes with a combination of FITC-conjugated anti-CD3 and PE-conjugated anti-CD19. After incubation with taurolidine (with or without concomitant LPS treatment), cells were rinsed twice in phosphate-buffered saline containing 0.1% bovine serum albumin (PBSA) and 1×10^6 cells were resuspended in 0.1 ml PBSA. After 5 μl FITC-conjugated anti-CD14 was added, cells were incubated in the dark on ice for 15 minutes and then centrifuged at 250×g. Cells were resuspended in 500 μl PBSA containing 5 μg/ml PI and subjected to flow cytometry.
# (§4) Consequently, TUNEL analysis was performed on PBMC at 3, 6, or 24 hours after treatment with 25 to 100 μg/ml taurolidine. Aliquots of harvested cells were also labeled with FITC-conjugated anti-CD14 antibodies and PI, which allowed identification of monocytes (CD14-positive cells) and cells with damaged cell membranes (PI-positive cells). […] Thus, nearly 75% of the monocytes were TUNEL-positive following treatment with 100 μg/ml taurolidine for six hours. Confirmation that the TUNEL-positive cells were monocytes was obtained by staining with FITC-conjugated anti-CD14.
# (§5) ^a Analysis by flow cytometry after staining cells with FITC-conjugated
# (§6) anti-CD14 and PI, and processing for TUNEL. Data are mean ± SD of two
# PBMC = test: as above; conditions: PBMC
# Method: as §1, §2, §3, §4, §5, §6
structure (smiles),measurement,setting,value
"O=S1(=O)CCN(CN2CCS(=O)(=O)NC2)CN1 [taurolidine, 4,4'-methylenebis(perhydro-1,2,4-thiadiazin 1,1-dioxide)]",trypan blue staining after treatment,K562 cells,did not show an increase in trypan blue staining
same,cytotoxicity at 6 h,[1]; 25 μg/ml,9 ± 3.2%
same,cytotoxicity at 6 h,[1]; 50 μg/ml,12.2 ± 5.6%
same,cytotoxicity at 6 h,[1]; 100 μg/ml,9 ± 3.5%
same,TUNEL-positive PBMC,"PBMC; 100 μg/ml, 6 h",substantial population of TUNEL-positive cells
same,TUNEL-positive PBMC,PBMC; 3 h incubation,relatively few
same,PI-positive cells versus control,"PBMC; taurolidine, 6 h",equivalently low levels of PI-positive cells
